For orientation: DC50 means the concentration giving 50% degradation. Broadly, the Dmax is the largest share of the target that was removed.

Holding throughout (assay type): cell-based
Experiment [1] concerns EGFR Del19/T790M/C797S (H1975-clone #28). The experiment is described as follows: EGFR degradation HTRF assay, H1975-clone #28 DTC cells. The following applies: H1975 # 28 DTC cells; for DC50: EGFR degradation, IC50 (DC50) from curve fit, read-out: DC50(nM) H1975 # 28 DTC; for Dmax (%) H1975 # 28 DTC: maximum percentage of inhibition (degradation). The method in brief:
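Read-out is an HTRF EGFR signal (337 nm excitation, 665/620 nm) from lysates of mutant-EGFR H1975 clones in which only the exogenous EGFR survives knockout. Treatment ran 16h at 37° C. from 10 uM final downward in 5-fold steps. DC50 comes from a logistic fit and Dmax is the maximal degradation.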
Background: Time-resolved FRET reads energy transfer from a long-lived donor to a nearby acceptor.

In experiment [2] the test system is EGFR Del19/C797S (H1975-clone #23). Description: EGFR degradation HTRF assay, H1975-clone #23 DC cells. The following applies: 16h treatment; for H1975 #23 DC Dmax (%): maximum percentage of degradation; for DC50: H1975 #23 DC, read-out: H1975 #23 DC DC50. The protocol: H1975-clone #28(Del19/T790M/C797S) and H1975-clone #23(Del19/C797S). EGFR-Del19/T790M/C797S and EGFR-Del19/C797S were stably expressed in H1975 cell lines by lentivirus-mediated over-expression, respectively. The EGFR over-expressed cells then underwent gene knockout, in which the EGFR targeting sgRNA was designed to only target the endogenous EGFR copies and preserve the exogenous EGFR copies. Followed by the gene knockout, the edited H1975 cells were seeded in 96 well plates at the concentration of 1 cell/well, cultured for about 2 weeks to allow single clones formation. The formed clones were screened by DNA sequencing and whole exon sequencing analysis for the desired edition. H1975-clone #28 and H1975-clone #23 were finally confirmed as homozygous Del19/T790M/C797S EGFR and Del19/C797S EGFR clones, respectively.
BaF3 WT(wild type), BaF3-LTC(L858R/T790M/C797S) and BaF3-DTC(Del19/T790M/C797S) cells are treated with compounds diluted in 0.2% DMSO cell culture medium and incubate for 16h, 37° C., 5% CO2, H1975-#36, H1975-#28, H1975-#23 and HCC827 cells are treated with compounds diluted in 0.2% DMSO cell culture medium on day 2, incubate for 16h, 37° C., 5% CO2.the final concentriation of compounds in all assay is start with 10 uM, 5-fold dilution, total 8 doses were included.
After 16h treatment, add HTRF lysis buffer to each well; seal the plate and incubate 1 hour at room temperature on a plate shaker; Once the cells are lysed, 16 μL of cell lysate are transferred to a PE 384-well HTRF detection plate; 4 μL of pre-mixed HTRF antibodies are added to each well; Cover the plate with a plate sealer, spin 1000 rpm for 1 min, Incubate overnight at room temperature; Read on BMG PheraStar with HTRF protocol (337 nm-665 nm-620 nm).
The inhibition (degradation) percentage of the compound was calculated by the following equation: Inhibition percentage of Compound=100-100×(Signal-low control)/(High control-low control), wherein signal=each test compound group
High control=Cell group with added DMSO and without compound, indicating microplate readings without EGFR degradation;
Dmax is the maximum percentage of inhibition (degradation).
The IC50 (DC50) value of a compound can be obtained by fitting the following equation
Y=Bottom+(TOP−Bottom)/(1+((IC50/X)^hillslope))
Wherein, X and Y are known values, and IC50, Hillslope, Top and Bottom are the parameters obtained by fitting with software. Y is the inhibition percentage (calculated from the equation), X is the concentration of the compound; IC50 is the concentration of the compound when the 50% inhibition is reached. The smaller the IC50 value is, the stronger the inhibitory ability of the compound is. Vice versa, the higher the IC50 value is, the weaker the inhibitory ability of the compound is; Hillslope represents the slope of the fitted curve, generally around 1*; Bottom represents the minimum value of the curve obtained by data fitting, which is generally 0%±20%; Top represents the maximum value of the curve obtained by data fitting, which is generally 100%±20%. The experimental data were fitted by calculating and analyzing with Dotmatics data analysis software.

In experiment [3] the target is T1, EGFR L858R/C797S (BaF3 LC cells) (Homo sapiens, UniProt P00533, C797S/L858R).
T1 construct: expressed in transfected cells; host or cells: BaF3
T1 sequence (P00533 25-1210 C797S/L858R): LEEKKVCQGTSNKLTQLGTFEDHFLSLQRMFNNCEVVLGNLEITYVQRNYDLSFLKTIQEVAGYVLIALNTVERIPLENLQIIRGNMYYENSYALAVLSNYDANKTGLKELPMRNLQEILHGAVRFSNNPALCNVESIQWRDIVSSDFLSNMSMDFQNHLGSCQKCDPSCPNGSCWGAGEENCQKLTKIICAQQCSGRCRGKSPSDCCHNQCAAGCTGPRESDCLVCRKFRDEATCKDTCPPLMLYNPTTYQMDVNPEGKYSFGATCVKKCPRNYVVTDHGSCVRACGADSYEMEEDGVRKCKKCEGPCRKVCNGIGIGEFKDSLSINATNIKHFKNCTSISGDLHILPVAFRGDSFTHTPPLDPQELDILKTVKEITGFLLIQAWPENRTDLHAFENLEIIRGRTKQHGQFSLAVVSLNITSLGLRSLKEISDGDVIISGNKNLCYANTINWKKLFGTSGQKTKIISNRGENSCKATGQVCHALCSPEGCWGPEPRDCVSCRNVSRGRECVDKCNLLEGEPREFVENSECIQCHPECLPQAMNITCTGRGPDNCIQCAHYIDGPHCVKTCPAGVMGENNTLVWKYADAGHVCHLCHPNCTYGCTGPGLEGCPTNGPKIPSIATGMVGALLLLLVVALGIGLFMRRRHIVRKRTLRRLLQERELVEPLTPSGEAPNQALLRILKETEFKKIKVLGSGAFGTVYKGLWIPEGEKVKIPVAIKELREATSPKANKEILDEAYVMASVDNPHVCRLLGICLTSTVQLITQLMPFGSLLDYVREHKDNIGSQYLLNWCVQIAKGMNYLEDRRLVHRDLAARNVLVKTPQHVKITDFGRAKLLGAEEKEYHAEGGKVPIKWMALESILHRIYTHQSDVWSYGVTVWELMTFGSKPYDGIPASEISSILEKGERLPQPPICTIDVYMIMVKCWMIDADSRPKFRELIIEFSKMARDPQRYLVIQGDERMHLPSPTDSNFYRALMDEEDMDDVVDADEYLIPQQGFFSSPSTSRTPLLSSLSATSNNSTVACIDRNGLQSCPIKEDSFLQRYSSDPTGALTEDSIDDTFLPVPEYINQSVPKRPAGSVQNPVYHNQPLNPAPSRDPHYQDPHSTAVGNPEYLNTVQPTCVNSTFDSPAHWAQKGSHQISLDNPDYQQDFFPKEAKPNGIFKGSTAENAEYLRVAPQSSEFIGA
Description: EGFR degradation HTRF assay, BaF3 LC cells. The following applies: BaF3 LC, 16h treatment; for DC50: read-out: BaF3 LC DC50; for Dmax: maximum percentage of degradation, read-out: BaF3 LC Dmax (%).

In experiment [4] the target is T2, EGFR L858R/T790M/C797S (BaF3-LTC cells) (Homo sapiens, UniProt P00533, C797S/L858R/T790M).
T2 construct: expressed in transfected cells; host or cells: BaF3
T2 sequence (P00533 25-1210 T790M/C797S/L858R): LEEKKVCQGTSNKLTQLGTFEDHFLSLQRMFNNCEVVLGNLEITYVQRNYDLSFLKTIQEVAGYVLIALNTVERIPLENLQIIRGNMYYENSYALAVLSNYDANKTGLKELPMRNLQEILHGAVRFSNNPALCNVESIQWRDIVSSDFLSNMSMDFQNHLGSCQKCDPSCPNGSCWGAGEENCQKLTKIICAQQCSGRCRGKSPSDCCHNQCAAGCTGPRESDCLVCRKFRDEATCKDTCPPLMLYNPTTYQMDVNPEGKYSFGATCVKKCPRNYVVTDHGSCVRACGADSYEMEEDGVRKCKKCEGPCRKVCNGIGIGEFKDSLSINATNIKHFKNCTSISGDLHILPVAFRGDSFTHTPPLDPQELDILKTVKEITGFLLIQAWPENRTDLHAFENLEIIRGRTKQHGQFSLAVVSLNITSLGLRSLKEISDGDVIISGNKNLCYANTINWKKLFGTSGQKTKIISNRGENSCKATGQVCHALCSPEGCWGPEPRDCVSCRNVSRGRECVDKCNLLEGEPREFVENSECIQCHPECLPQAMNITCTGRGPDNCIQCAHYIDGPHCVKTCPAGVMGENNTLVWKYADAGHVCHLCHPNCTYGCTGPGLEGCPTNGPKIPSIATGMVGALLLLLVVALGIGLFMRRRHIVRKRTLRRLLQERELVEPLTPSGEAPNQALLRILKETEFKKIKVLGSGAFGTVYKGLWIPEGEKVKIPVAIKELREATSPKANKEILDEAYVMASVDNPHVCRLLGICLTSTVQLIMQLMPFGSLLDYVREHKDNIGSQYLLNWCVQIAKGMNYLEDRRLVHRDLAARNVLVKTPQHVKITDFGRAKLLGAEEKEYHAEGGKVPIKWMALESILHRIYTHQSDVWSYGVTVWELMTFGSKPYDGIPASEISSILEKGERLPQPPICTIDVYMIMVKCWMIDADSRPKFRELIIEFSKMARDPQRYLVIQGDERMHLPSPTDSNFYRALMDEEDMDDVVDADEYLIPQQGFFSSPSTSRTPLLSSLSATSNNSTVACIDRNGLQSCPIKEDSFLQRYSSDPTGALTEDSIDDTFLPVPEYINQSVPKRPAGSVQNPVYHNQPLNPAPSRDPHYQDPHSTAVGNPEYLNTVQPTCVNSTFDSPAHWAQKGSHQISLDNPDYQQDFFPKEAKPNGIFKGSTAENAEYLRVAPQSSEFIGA
The experiment is described as follows: EGFR degradation HTRF assay, BaF3-LTC cells. Conditions: BaF3-LTC cells; for DC50: EGFR degradation, IC50 (DC50) from curve fit, read-out: DC50(nM) BaF3-LTC; for Dmax: maximum percentage of inhibition (degradation), read-out: Dmax (%) BaF3-LTC. The method in brief:
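Cells treated 16 h at 37 °C, 5% CO2 in medium with 0.2% DMSO; top final concentration 10 uM, 5-fold dilution, 8 doses. Lysates read by HTRF (665/620 nm); degradation % versus DMSO high control, DC50 from four-parameter fit, Dmax as maximal degradation.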

Molecules are shown by their SMILES.

With `CCOc1cc(N2CCC(N3CCN(CCc4cc(F)c([C@H]5CCC(=O)NC5=O)c(F)c4)CC3)CC2)c(CC)cc1Nc1ncc(Br)c(Nc2ccc3nc(CC)ncc3c2P(C)(C)=O)n1` [Example 460, (R)-3-(4-(2-(4-(1-(4-((5-bromo-4-((5-(dimethylphosphoryl)-2-ethylquinazolin-6-yl)amino)pyrimidin-2-yl)amino)-5-ethoxy-2-ethylphenyl)piperidin-4-yl)piperazin-1-yl)ethyl)-2,6-difluorophenyl)piperidine-2,6-dione], the DC50 in experiment [1] amounted to 2.43 nM; in experiment [2] it was 3.11 nM; in experiment [3], 37.3 nM; in experiment [4], 16.4 nM. Further, the “Dmax (%) H1975 # 28 DTC” value in experiment [1] amounted to 86%. Further, in experiment [2], the “H1975 #23 DC Dmax (%)” value amounted to 82.75%.

Consider `CCOc1cc(N2CCC(N3CCN(CCc4cc(F)cc5c4n(C)c(=O)n5C4CCC(=O)NC4=O)CC3)CC2)c(CC)cc1Nc1ncc(Br)c(Nc2ccc3nc(CC)ccc3c2P(C)(C)=O)n1` (stereo not shown) [Example 462, 3-(4-(2-(4-(1-(4-((5-bromo-4-((5-(dimethylphosphoryl)-2-ethylquinolin-6-yl)amino)pyrimidin-2-yl)amino)-5-ethoxy-2-ethylphenyl)piperidin-4-yl)piperazin-1-yl)ethyl)-6-fluoro-3-methyl-2-oxo-2,3-dihydro-1H-benzo[d]imidazol-1-yl)piperidine-2,6-dione], for which the 50% degradation concentration (DC50) in experiment [1] amounted to 1.12 nM; in experiment [2], 3.19 nM; in experiment [3], 67.7 nM; in experiment [4] it was 19.2 nM. Moreover, the “Dmax (%) H1975 # 28 DTC” value in experiment [1] worked out at 78.37%. Also, the “H1975 #23 DC Dmax (%)” value in experiment [2] was determined as 77.67%.

As for `CCOc1cc(N2CCC(N3CCN(CCc4ccc5c(c4)oc(=O)n5C4CCC(=O)NC4=O)CC3)CC2)c(CC)cc1Nc1ncc(Br)c(Nc2ccc3nc(CC)ccc3c2P(C)(C)=O)n1` (stereo not shown) [Example 463, 3-(6-(2-(4-(1-(4-((5-bromo-4-((5-(dimethylphosphoryl)-2-ethylquinolin-6-yl)amino)pyrimidin-2-yl)amino)-5-ethoxy-2-ethylphenyl)piperidin-4-yl)piperazin-1-yl)ethyl)-2-oxobenzo[d]oxazol-3(2H)-yl)piperidine-2,6-dione], in experiment [1], the DC50 was found to be 0.26 nM and the “Dmax (%) H1975 # 28 DTC” value stood at 82.73%. In addition, in experiment [2], the “H1975 #23 DC Dmax (%)” value is on record as 56.75% and the half-maximal degradation concentration (DC50) worked out at 0.951 nM. Besides, in experiment [3], the greatest degradation seen (Dmax) turned out to be 85.5% and the DC50 turned out to be 6.88 nM. Besides, in experiment [4], the half-maximal degradation concentration (DC50) is 3.34 nM and the Dmax worked out at 92.6%.

`CCOc1cc(N2CCC(N3CCN(CCc4cc5oc(=O)n(C6CCC(=O)NC6=O)c5cc4C)CC3)CC2)c(CC)cc1Nc1ncc(Br)c(Nc2ccc3nc(CC)ccc3c2P(C)(C)=O)n1` (stereo not shown) [Example 465, 3-(6-(2-(4-(1-(4-((5-bromo-4-((5-(dimethylphosphoryl)-2-ethylquinolin-6-yl)amino)pyrimidin-2-yl)amino)-5-ethoxy-2-ethylphenyl)piperidin-4-yl)piperazin-1-yl)ethyl)-5-methyl-2-oxobenzo[d]oxazol-3(2H)-yl)piperidine-2,6-dione]: in experiment [1], the DC50 was 1.92 nM and the “Dmax (%) H1975 # 28 DTC” value turned out to be 70.68%. Further, in experiment [2], the “H1975 #23 DC Dmax (%)” value turned out to be 48.97% and the DC50 is over 16 nM. Further, in experiment [3], the maximal degradation (Dmax) was found to be 92.7% and the DC50 turned out to be 1.94 nM. In experiment [4], the DC50 stood at 2.46 nM and the maximal degradation (Dmax) came out at 84.5%.

Take `CCOc1cc(N2CCC(N3CCN(CCc4cccc5c4n(C4CC4)c(=O)n5C4CCC(=O)NC4=O)CC3)CC2)c(CC)cc1Nc1ncc(Br)c(Nc2ccc3nc(CC)ccc3c2P(C)(C)=O)n1` (stereo not shown) [Example 468, 3-(4-(2-(4-(1-(4-((5-bromo-4-((5-(dimethylphosphoryl)-2-ethylquinolin-6-yl)amino)pyrimidin-2-yl)amino)-5-ethoxy-2-ethylphenyl)piperidin-4-yl)piperazin-1-yl)ethyl)-3-cyclopropyl-2-oxo-2,3-dihydro-1H-benzo[d]imidazol-1-yl)piperidine-2,6-dione]: in experiment [1], the DC50 was determined as 0.998 nM and the “Dmax (%) H1975 # 28 DTC” value is given as 74.46%. In addition, in experiment [2], the “H1975 #23 DC Dmax (%)” value is recorded as 79.65% and the half-maximal degradation concentration (DC50) is 11.9 nM. Besides, in experiment [3], the maximal degradation (Dmax) amounted to 82.8% and the DC50 was 66.1 nM. In experiment [4], the DC50 came out at 12.2 nM and the maximal degradation (Dmax) was 90.2%.

In the case of `CCOc1cc(N2CCC(N3CCN(CCc4cc(C)cc5c4oc(=O)n5C4CCC(=O)NC4=O)CC3)CC2)c(CC)cc1Nc1ncc(Br)c(Nc2ccc3nc(CC)ccc3c2P(C)(C)=O)n1` (stereo not shown) [Example 469, 3-(7-(2-(4-(1-(4-((5-bromo-4-((5-(dimethylphosphoryl)-2-ethylquinolin-6-yl)amino)pyrimidin-2-yl)amino)-5-ethoxy-2-ethylphenyl)piperidin-4-yl)piperazin-1-yl)ethyl)-5-methyl-2-oxobenzo[d]oxazol-3(2H)-yl)piperidine-2,6-dione], in experiment [1], the half-maximal degradation concentration (DC50) worked out at 2.6 nM and the “Dmax (%) H1975 # 28 DTC” value amounted to 81.32%. Moreover, in experiment [2], the “H1975 #23 DC Dmax (%)” value is 73.64% and the DC50 worked out at 1.48 nM. For the same compound, in experiment [3], the Dmax is 89.8% and the half-maximal degradation concentration (DC50) stood at 21.7 nM. Further, in experiment [4], the half-maximal degradation concentration (DC50) was found to be 11.6 nM and the Dmax is 90%.

For the compound `CCOc1cc(N2CCC(N3CCN(CCc4ccc(C)c5c4oc(=O)n5C4CCC(=O)NC4=O)CC3)CC2)c(CC)cc1Nc1ncc(Br)c(Nc2ccc3nc(CC)ccc3c2P(C)(C)=O)n1` (stereo not shown) [Example 470, 3-(7-(2-(4-(1-(4-((5-bromo-4-((5-(dimethylphosphoryl)-2-ethylquinolin-6-yl)amino)pyrimidin-2-yl)amino)-5-ethoxy-2-ethylphenyl)piperidin-4-yl)piperazin-1-yl)ethyl)-4-methyl-2-oxobenzo[d]oxazol-3(2H)-yl)piperidine-2,6-dione], in experiment [1], the DC50 is over 10000 nM and the “Dmax (%) H1975 # 28 DTC” value is recorded as 39.87%. Moreover, in experiment [2], the “H1975 #23 DC Dmax (%)” value was 64.89% and the DC50 turned out to be 9540 nM. In experiment [3], the Dmax was found to be 86.6% and the half-maximal degradation concentration (DC50) stood at 300 nM. In experiment [4], the DC50 was determined as 418 nM and the Dmax came to 80.5%.

Consider `CCOc1cc(N2CCC(N3CCN(CCc4cccc5c4oc(=O)n5C4CCC(=O)NC4=O)CC3)CC2)c(CC)cc1Nc1ncc(Br)c(Nc2ccc3nc(CC)ccc3c2P(C)(C)=O)n1` (stereo not shown) [Example 473, 3-(7-(2-(4-(1-(4-((5-bromo-4-((5-(dimethylphosphoryl)-2-ethylquinolin-6-yl)amino)pyrimidin-2-yl)amino)-5-ethoxy-2-ethylphenyl)piperidin-4-yl)piperazin-1-yl)ethyl)-2-oxobenzo[d]oxazol-3(2H)-yl)piperidine-2,6-dione], for which the DC50 in experiment [1] turned out to be 0.616 nM; in experiment [2], 12.8 nM; in experiment [3] it was 73.4 nM; in experiment [4], 9.51 nM. In addition, in experiment [1], the “Dmax (%) H1975 # 28 DTC” value is reported as 83.08%. Besides, the “H1975 #23 DC Dmax (%)” value in experiment [2] is recorded as 82.45%.

(Values after patent publication US20230265116A1, “DEGRADATION OF (EGFR) BY CONJUGATION OF EGFR INHIBITORS WITH E3 LIGASE LIGAND AND METHODS OF USE” (BEIGENE, LTD., priority 2020, published 2023).)
